System: OVA-specific CD4+ T (OT-II) cells
Experiment: BMDC/B cell co-culture with OT-II cells, CFSE dilution and CD25 expression
Type: cell-based, mouse
Details: BMDCs and B cells, 3-day co-culture
Procedure: T cell proliferation studies assays were carried out as described. The assay was carried out in T cell media. BMDCs (2×10^4/well) or B cells (2×10^4/well) were seeded into 96-well round-bottom cell culture plates and incubated with LAg-nano or PAg-nano at various particle concentrations and Ag loadings for 3 hours. Following incubation, all wells were washed to remove excess particles that had not been internalized by cells. Cells were co-cultured with 2×10^4/well of each OTI (CD8) and OTII (CD4) T cells). Groups receiving antigen in lieu of LAg-nano or PAg-nano received soluble OVA323-339 or SIINFEKL (SEQ ID NO:1; 100 ng/mL) at this time. After 3 days of co-culture, the T cells were collected, stained for viability, CD4, and CD8 and analyzed using flow cytometry. The extent of T cell proliferation was analyzed by CFSE dilution using flow cytometry. Ag processing kinetics in B cells was determined by loading with long GP100, KVPRNQDWL (SEQ ID NO:4; short GP100), or lipid-long GP100, […] (lipid-GP100; SEQ ID NO:3). […]
BMDCs and B cells loaded with unmodified ovalbumin (OVA) MHC II-restricted antigen (OVA323-339) or lipo-OVA323-339 were co-cultured with OVA-specific CD4^+ T (OT-II) cells for 3 days. CD25+ expression was detected and the proliferation and division indices were calculated. […] FIGS. 11E through 11H show quantitation of the proliferation and division indices of OT-II T cells. […]

**Q.** “Lipo-OVA323-339: DSPE-PEG2000 lipid conjugated to OVA323-339 (ISQAVHAAHAEINEAGR; SEQ ID NO:2)” was tested. Which “APC internalization and MHC II-restricted presentation to OTII CD4+ T cells” value did it give?
**A.** enables APC internalization and promotes MHC II-restricted presentation
